These results are taken from BindingDB's records for doi:10.1021/acs.jmedchem.7b00951 (Shandong University, 2017).

Test [1] can be described thus: Antagonist activity at PAR1 in human platelet-rich plasma assessed as reduction in TRAP-stimulated platelet aggregation preincubated for 20 mins followed by TRAP stimulation measured after 5 mins by aggregometric analysis.
Test [2] can be described thus: Antagonist activity at PAR1 in human platelet-rich plasma assessed as reduction in thrombin-stimulated platelet aggregation preincubated for 3 mins followed by thrombin stimulation measured after 5 mins by aggregometric analysis.
Assay in test [3]: as above
The source holds these as a separate data set.

Take `CCOC(=O)N[C@@H]1CC[C@@H]2[C@@H](C1)C[C@H]1C(=O)O[C@H](C)[C@H]1[C@H]2C=Cc1ccc(-c2cccc(F)c2)cn1` [Ethyl [(3aR,4aR,8aR,9aS)-9(S)-[(E)-2-[5-(3-fluorophenyl)-2-pyridinyl]ethenyl]dodecahydro-1(R)-methyl-3-oxonaphtho[2,3-c]furan-6(R)-yl]carbamate]: the IC50 in test [1] amounted to 31 nM; in test [2], 81 nM.

`C[C@H]1CC[C@@H]2C(C)(C)[C@H](O)CC[C@@]2(C)[C@@H]1/C=C/c1ccc(-c2cccc(F)c2)cn1`: the IC50 in test [1] worked out at 1600 nM; in test [3], 650 nM.
